What all share (format): biochemical
Experiment [1] concerns the target T1, human IP6K1 (Homo sapiens, UniProt Q92551).
T1 construct: human IP6K1 (1-441) gene; GST; made in house; host or cells: Sf-9 insect cells
Briefly: IP6K enzyme inhibitory assay (ADP-Glo Kinase Assay), human IP6K1. The settings on record: compound concentration 0.1 μM; read-out: ADP-Glo method inhibitory rate (%) human IP6K1. The essentials:
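Inhibition of human IP6K1 was determined with Promega's ADP-Glo Kinase Assay in 384 well plates. Test compound diluted in assay buffer (20 mM HEPES (pH 7.5), 6 mM MgCl2, 0.01% Tween-20, 1 mM DTT) was added at 2 μL, then 2 μL of enzyme started the reaction for 60 min at room temperature. Next came 3 μL ADP-Glo solution for 30 min and 6 μL Kinase-Detection solution for 60 min. Luminescence was read on an Envision plate reader.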
Background: ADP-Glo first removes unused ATP, then detects ADP through luciferase.

Experiment [2] concerns the target T2, human IP6K2 (Homo sapiens, UniProt Q9UHH9).
T2 construct: human IP6K2 (1-426) gene; GST; made in house; host or cells: Sf-9 insect cells
T2 sequence (Q9UHH9 1-426): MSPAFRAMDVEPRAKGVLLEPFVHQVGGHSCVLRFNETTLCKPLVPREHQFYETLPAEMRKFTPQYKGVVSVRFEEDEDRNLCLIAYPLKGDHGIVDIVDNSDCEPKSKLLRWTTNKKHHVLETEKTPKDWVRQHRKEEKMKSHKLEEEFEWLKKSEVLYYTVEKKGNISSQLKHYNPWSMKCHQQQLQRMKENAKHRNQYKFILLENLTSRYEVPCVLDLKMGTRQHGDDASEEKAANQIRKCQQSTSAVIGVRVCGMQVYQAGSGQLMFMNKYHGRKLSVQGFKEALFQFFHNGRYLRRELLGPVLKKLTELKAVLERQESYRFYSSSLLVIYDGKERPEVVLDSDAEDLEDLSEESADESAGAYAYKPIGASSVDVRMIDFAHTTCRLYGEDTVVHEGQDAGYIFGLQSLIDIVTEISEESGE
The experiment is described as follows: IP6K enzyme inhibitory assay (ADP-Glo Kinase Assay), human IP6K2. Particulars: compound concentration 0.1 μM; read-out: ADP-Glo method inhibitory rate (%) human IP6K2. The essentials:
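The inhibitory activity against human IP6K2 was measured with Promega's ADP-Glo Kinase Assay in 384 well plates. Test compound, diluted in assay buffer (20 mM HEPES (pH 7.5), 6 mM MgCl2, 0.01% Tween-20, 1 mM DTT), was added at 2 μL. Adding 2 μL of diluted enzyme started the reaction, which ran for 60 min at room temperature. Next, 3 μL ADP-Glo solution (30 min) and 6 μL Kinase-Detection solution (60 min) were added, and luminescence was read on an Envision plate reader.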

Experiment [3] addresses T3, human IP6K3 (Homo sapiens, UniProt Q96PC2).
T3 construct: human IP6K3 (1-410) gene; made in house; host or cells: BL21 (DE3) Escherichia coli
T3 sequence (Q96PC2 1-410): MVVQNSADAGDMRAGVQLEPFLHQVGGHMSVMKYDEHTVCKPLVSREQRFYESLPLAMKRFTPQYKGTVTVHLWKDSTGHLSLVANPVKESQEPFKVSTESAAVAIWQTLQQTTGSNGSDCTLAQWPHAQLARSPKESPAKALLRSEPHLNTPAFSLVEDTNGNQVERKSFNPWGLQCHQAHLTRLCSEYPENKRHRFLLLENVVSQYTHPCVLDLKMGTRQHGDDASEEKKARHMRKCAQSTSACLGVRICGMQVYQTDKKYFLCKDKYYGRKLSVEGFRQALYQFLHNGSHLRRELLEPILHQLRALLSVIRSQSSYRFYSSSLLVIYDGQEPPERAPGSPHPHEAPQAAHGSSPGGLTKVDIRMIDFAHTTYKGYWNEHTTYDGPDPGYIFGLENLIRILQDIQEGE
The experiment is described as follows: IP6K enzyme inhibitory assay (ADP-Glo Kinase Assay), human IP6K3. The settings on record: compound concentration 0.1 μM; read-out: ADP-Glo method inhibitory rate (%) human IP6K3. The essentials:
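Recombinant human IP6K (IP6K3 residues 1-410, E. coli, Ni-NTA purified) incubated with compound in 20 mM HEPES pH 7.5, 6 mM MgCl2, 0.01% Tween-20, 1 mM DTT for 60 min at room temperature. ADP formed read as luminescence by ADP-Glo.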

T1 sequence (Q92551 whole entry): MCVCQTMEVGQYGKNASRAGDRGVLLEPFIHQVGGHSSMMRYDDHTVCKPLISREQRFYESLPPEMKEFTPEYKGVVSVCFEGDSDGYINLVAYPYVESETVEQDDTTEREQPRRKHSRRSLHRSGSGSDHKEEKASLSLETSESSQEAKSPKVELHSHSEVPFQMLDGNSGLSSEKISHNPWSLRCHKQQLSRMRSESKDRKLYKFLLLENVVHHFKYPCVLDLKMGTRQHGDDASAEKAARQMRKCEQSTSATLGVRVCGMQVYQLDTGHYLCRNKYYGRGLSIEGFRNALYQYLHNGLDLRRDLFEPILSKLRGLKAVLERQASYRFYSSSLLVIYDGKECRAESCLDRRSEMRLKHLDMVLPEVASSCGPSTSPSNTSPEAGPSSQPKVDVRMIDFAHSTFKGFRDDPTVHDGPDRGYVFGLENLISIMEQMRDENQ

As to `O=C(O)c1ccc2c(c1)[C@]1(CC[C@@H](Oc3ccc(F)c(Cl)c3)CC1)C(=O)N2` [Example 67, (1r,4r)-4-(3-chloro-4-fluorophenoxy)-2′-oxo-1′,2′-dihydrospiro[cyclohexane-1,3′-indole]-5′-carboxylic acid], the inhibition at 0.1 µM in experiment [1] was 93%; in experiment [2], 98%; in experiment [3], 97%.

Regarding `O=C(O)c1ccc2c(c1)[C@]1(CC[C@@H](Oc3ccc(F)cc3Cl)CC1)C(=O)N2` [Example 68, (1r,4r)-4-(2-chloro-4-fluorophenoxy)-2′-oxo-1′,2′-dihydrospiro[cyclohexane-1,3′-indole]-5′-carboxylic acid], the inhibition at 0.1 µM in experiment [1] is 93%; in experiment [2], 98%; in experiment [3], 98%.

Take `O=C(O)c1ccc2c(c1)[C@]1(CC[C@@H](Oc3ccc(Cl)c(F)c3)CC1)C(=O)N2` [Example 69, (1r,4r)-4-(4-chloro-3-fluorophenoxy)-2′-oxo-1′,2′-dihydrospiro[cyclohexane-1,3′-indole]-5′-carboxylic acid]: the inhibition at 0.1 µM in experiment [1] turned out to be 100%; in experiment [2] it was 100%; in experiment [3], 96%.

`COc1ccc(O[C@H]2CC[C@@]3(CC2)C(=O)Nc2ccc(C(=O)O)cc23)c(C#N)c1` [Example 70, (1r,4r)-4-(2-cyano-4-methoxyphenoxy)-2′-oxo-1′,2′-dihydrospiro[cyclohexane-1,3′-indole]-5′-carboxylic acid]: the inhibition at 0.1 µM in experiment [1], in experiment [2] and in experiment [3] was 99% in each case.

With `N#Cc1cc(O[C@H]2CC[C@@]3(CC2)C(=O)Nc2ccc(C(=O)O)cc23)ccc1Cl` [Example 71, (1r,4r)-4-(4-chloro-3-cyanophenoxy)-2′-oxo-1′,2′-dihydrospiro[cyclohexane-1,3′-indole]-5′-carboxylic acid], the inhibition at 0.1 µM stood at 88% in experiment [1], 90% in experiment [2] and 95% in experiment [3].

Consider `N#Cc1ccc(O[C@H]2CC[C@@]3(CC2)C(=O)Nc2ccc(C(=O)O)cc23)c(Cl)c1` [Example 72, (1r,4r)-4-(2-chloro-4-cyanophenoxy)-2′-oxo-1′,2′-dihydrospiro[cyclohexane-1,3′-indole]-5′-carboxylic acid], for which the figures for the inhibition at 0.1 µM in experiment [1], in experiment [2] and in experiment [3] were 99%, 97% and 97%, respectively.

Turning to `N#Cc1ccc(O[C@H]2CC[C@@]3(CC2)C(=O)Nc2ccc(C(=O)O)cc23)cc1Cl` [Example 73, (1r,4r)-4-(3-chloro-4-cyanophenoxy)-2′-oxo-1′,2′-dihydrospiro[cyclohexane-1,3′-indole]-5′-carboxylic acid], the inhibition at 0.1 µM in experiment [1] came to 98%; in experiment [2] it was 97%; in experiment [3], 91%.

`O=C(O)c1ccc2c(c1)[C@]1(CC[C@@H](Oc3ccccc3C(F)(F)F)CC1)C(=O)N2` [Example 74, (1r,4r)-2′-oxo-4-(2-(trifluoromethyl)phenoxy)-1′,2′-dihydrospiro[cyclohexane-1,3′-indole]-5′-carboxylic acid]: the figures for the inhibition at 0.1 µM in experiment [1], in experiment [2] and in experiment [3] were 93%, 92% and 92%, respectively.

For the molecule `O=C(O)c1ccc2c(c1)[C@]1(CC[C@@H](Oc3cccc(C(F)(F)F)c3)CC1)C(=O)N2` [Example 75, (1r,4r)-2′-oxo-4-(3-(trifluoromethyl)phenoxy)-1′,2′-dihydrospiro[cyclohexane-1,3′-indole]-5′-carboxylic acid], the inhibition at 0.1 µM in experiment [1] is 89%; in experiment [2], 94%; in experiment [3], 89%.

As to `O=C(O)c1ccc2c(c1)[C@]1(CC[C@@H](Oc3cc(F)cc(C(F)(F)F)c3)CC1)C(=O)N2` [Example 76, (1r,4r)-4-(3-fluoro-5-(trifluoromethyl)phenoxy)-2′-oxo-1′,2′-dihydrospiro[cyclohexane-1,3′-indole]-5′-carboxylic acid], the inhibition at 0.1 µM in experiment [1] was found to be 81%; in experiment [2] it was 86%; in experiment [3], 86%.

`O=C(O)c1ccc2c(c1)[C@]1(CC[C@@H](Oc3cccc(C(F)(F)F)c3F)CC1)C(=O)N2` [Example 77, (1r,4r)-4-(2-fluoro-3-(trifluoromethyl)phenoxy)-2′-oxo-1′,2′-dihydrospiro[cyclohexane-1,3′-indole]-5′-carboxylic acid]: the values for the inhibition at 0.1 µM in experiment [1], in experiment [2] and in experiment [3] were 94%, 99% and 98%, respectively.

On to `O=C(O)c1ccc2c(c1)[C@]1(CC[C@@H](Oc3cc(C(F)(F)F)ccc3F)CC1)C(=O)N2` [Example 78, (1r,4r)-4-(2-fluoro-5-(trifluoromethyl)phenoxy)-2′-oxo-1′,2′-dihydrospiro[cyclohexane-1,3′-indole]-5′-carboxylic acid], for which the results for the inhibition at 0.1 µM in experiment [1], in experiment [2] and in experiment [3] were 96%, 96% and 98%, respectively.

Take `O=C(O)c1ccc2c(c1)[C@]1(CC[C@@H](Oc3ccc(F)c(C(F)(F)F)c3)CC1)C(=O)N2` [Example 79, (1r,4r)-4-(4-fluoro-3-(trifluoromethyl)phenoxy)-2′-oxo-1′,2′-dihydrospiro[cyclohexane-1,3′-indole]-5′-carboxylic acid]: the inhibition at 0.1 µM stood at 87% in experiment [1], 89% in experiment [2] and 97% in experiment [3].

Regarding `Cn1nc(O[C@H]2CC[C@@]3(CC2)C(=O)Nc2ccc(C(=O)O)cc23)cc1C(F)(F)F` [Example 80, (1r,4r)-4-((1-methyl-5-(trifluoromethyl)-1H-pyrazol-3-yl)oxy)-2′-oxo-1′,2′-dihydrospiro[cyclohexane-1,3′-indole]-5′-carboxylic acid], the inhibition at 0.1 µM in experiment [1] is 62%; in experiment [2], 82%; in experiment [3], 89%.

Regarding `Cc1cc(Cl)cnc1O[C@H]1CC[C@]2(CC1)C(=O)Nc1ccc(C(=O)O)nc12` [Example 81, (1s,4s)-4-((5-chloro-3-methylpyridin-2-yl)oxy)-2′-oxo-1′,2′-dihydrospiro[cyclohexane-1,3′-pyrrolo[3,2-b]pyridine]-5′-carboxylic acid], the inhibition at 0.1 µM turned out to be 96% in experiment [1], 100% in experiment [2] and 100% in experiment [3].

`COc1cc(Cl)ccc1O[C@H]1CC[C@@]2(CC1)C(=O)Nc1ccc(C(=O)O)cc12` [Example 82, (1r,4r)-4-(4-chloro-2-methoxyphenoxy)-2′-oxo-1′,2′-dihydrospiro[cyclohexane-1,3′-indole]-5′-carboxylic acid]: the inhibition at 0.1 µM in experiment [1] stood at 98%; in experiment [2], 101%; in experiment [3], 99%.

Turning to `COc1cc(Cl)ccc1O[C@H]1CC[C@]2(CC1)C(=O)Nc1ccc(C(=O)O)cc12` [Example 83, (1s,4s)-4-(4-chloro-2-methoxyphenoxy)-2′-oxo-1′,2′-dihydrospiro[cyclohexane-1,3′-indole]-5′-carboxylic acid], the inhibition at 0.1 µM in experiment [1] was 97%; in experiment [2], 100%; in experiment [3], 102%.

In the case of `O=C(O)c1ccc2c(n1)[C@]1(CC[C@H](Oc3ccc(F)cc3F)CC1)C(=O)N2` [Example 84, (1s,4s)-4-(2,4-difluorophenoxy)-2′-oxo-1′,2′-dihydrospiro[cyclohexane-1,3′-pyrrolo[3,2-b]pyridine]-5′-carboxylic acid], the inhibition at 0.1 µM stood at 75% in experiment [1], 59% in experiment [2] and 91% in experiment [3].

Source of the values: patent US10968178B2, “IP6K inhibitors” (TAKEDA PHARMACEUTICAL COMPANY LIMITED, priority 2017, dated 2021).
